Experimental data reported in EP0187057A1, “2-Phenyl-isopropyl-allophanate, preparation and pharmaceutical application” (priority 1984, dated 1986).
Where “and” joins values, the source holds several entries; their conditions need not be identical. Equal values may be shown once. Read-outs that look alike come from different tables or passages of the source.

Tests used:
[1] = Hole-board test (curiosity, exploratory behaviour); format: in vivo, souris; details: mouse, in vivo, po
Excerpt: (§1) On a donc étudié les effets dépresseurs que peuvent exercer des doses croissantes de SCS 289 sur : • - la motricité spontanée de la souris; • - sa curiosité, quantifiée par la méthode de la planche à trous; • - son agilité, évaluée par l'épreuve de la traction de Boissier et Simon; • - sa force musculaire, mesurée par l'épreuve des poids.
(§2) Les essais ont été pratiqués sur des groupes de 10 souris dont les performances motrices ont été mesurées à deux reprises : avant et une heure après traitement par le SCS 289 administré, par voie digestive à des doses allant de 10 à 200 mg/kg, actives vis-à-vis des convulsions pentétrazoliques et des crises psychomotrices. A noter que l'épreuve de la planche à trous utilisée pour chiffrer la curiosité des animaux (décompte du nombre de visites des trous) n'est pratiquée qu'une seule fois, le comportement explorateur des animaux traités étant alors comparé à celui des témoins.
(§3) Les résultats obtenus dans chaque groupe ont permis de calculer la DA50 capable de diminuer de 50 X les performances motrices initiales ou de diminuer de 50% la curiosité des souris traitées par rapport à celle des témoins.
(§4) Les expérimentations comportementales précédemment décrites ont été appliquées à des animaux recevant SCS 35 et SCS 289 aux doses de 10 et 25 mg/kg.

[2] = tested on: curiosité de la souris; assay: Hole-board test (curiosity, exploratory behaviour); format: in vivo
Excerpt: as §1, §2, §3, §4

[3] = Acute toxicity by the digestive route, lethality after one week of observation; details: in vivo, po, rat; for mortality at 168 h: read-out: Pourcentage de létalité Rats
Procedure: Des doses croissantes de produit (SCS 289) ont été administrées, par voie digestive, sous forme de suspensions gommeuses, sous le volume de 0,50 ml/20 g de poids corporel chez la souris et 0,50 ml/100 g de poids corporel chez le rat (de 500 à 4000 mg/kg avec des intervalles de 500 mg/kg).
Les animaux ont été maintenus en observation pendant une semaine, tout d'abord dans le laboratoire (avec un chauffage d'appoint) jusqu'au réveil des animaux endormis, puis dans l'unité animale conditionnée et climatisée.
Le taux de mortalité relevé dans chaque lot de rats et de souris au terme de la semaine d'observation a été le suivant :
Les valeurs des DL50, calculées par la méthode de Miller et Tainter sont respectivement de : • - 2300 ± 102 m^g/k^g chez la souris; • - 2050 + 220 mg/kg chez le rat.

[4] = Weights test (muscular strength); format: in vivo, souris; details: mouse, in vivo, po; dose diminishing initial performance by 50 %; read-out: DA50 force musculaire
Excerpt: as §1, §2, §3, §4

[5] = tested on: force musculaire de la souris; assay: Weights test (muscular strength); format: in vivo
Excerpt: as §1, §2, §3, §4

[6] = Traction test of Boissier and Simon (agility); format: in vivo, souris; details: mouse, in vivo, po; dose diminishing initial performance by 50 %; read-out: DA50 agilité
Excerpt: as §1, §2, §3, §4

[7] = tested on: agilité de la souris; assay: Traction test of Boissier and Simon (agility); format: in vivo
Excerpt: as §1, §2, §3, §4

[8] = tested on: crises psychomotrices; assay: Psychomotor seizures induced by low-frequency transcranial electrical stimulation; format: in vivo, souris; details: for Pourcentage de souris protégées une heure après traitement: groupes de 20 souris
Excerpt: Propriétés anticonvulsivantes : • On a effectué, pour déterminer ces propriétés anticonvulsivantes, des expérimentations sur le SCS 289 en procédant à des essais de protection : • - chez le lapin soumis à une transélectrification cranienne génératrice de crises épileptiformes de type "grand mal" ou recevant une infusion veineuse de pentétrazol provoquant l'apparition de myoclonies palpébrales; • - chez la souris recevant, par voie sous-cutanée des doses croissantes de pentétrazol entraînant convulsions et mort ou soumise à une transélectrification transcranienne à basse fréquence génératrice de crises psychomotrices.
On a également recherché si le SCS 289 était susceptible de protéger la souris contre le choc psychomoteur induit par une stimulation transcranienne à basse fréquence qui provoque, chez l'animal, un bref comportement de désorientation rappelant les attaques psychomotrices de l'homme.
Vis-à-vis des crises psychomotrices provoquées chez la souris par une stimulation électrique transcranienne à basse fréquence, le SCS 35 apparait plus actif que le SCS 289 : […]

[9] = 10 mg/kg voie digestive, one hour after treatment

CC(C)OC(=O)N(C(N)=O)c1ccccc1 [SCS 289, phényl-2 allophanate d'isopropyle]
ED50 at 1 h ([1]; méthode de Miller et Tainter, read-out: DA50 capable de diminuer de 50 % la curiosité de la souris): 82.5 mg/kg
selectivity ratio ([1]; souris, read-out: DA50 curiosité par rapport aux doses anticonvulsivantes (pentétrazol / crises psychomotrices)): 15 to 18
Nb de visites des trous Traités ([2]; 10 mg/kg, par souris pendant cinq minutes, témoins 26,5): 27
Nb de visites des trous Traités ([2]; 25 mg/kg, témoins 26,4): 27,4
Nb de visites des trous Traités ([2]; 50 mg/kg, témoins 24,2): 23,6
Nb de visites des trous Traités ([2]; 75 mg/kg, témoins 27): 21,4
Nb de visites des trous Traités ([2]; 100 mg/kg, témoins 25,4): 8,6
Nb de visites des trous Traités ([2]; 150 mg/kg, témoins 24,2): 0
Nb de visites des trous Traités ([2]; 200 mg/kg, témoins 24,2): 0
DA50 capable de diminuer de 50 % la curiosité de la souris ([2]; méthode de Miller et Tainter, 60 min): 82,5 ± 7,6 mg/kg and ~82 mg/kg
LD50 at 168 h ([3]; voie digestive, méthode de Miller et Tainter, read-out: DL50): 2050 mg/kg
mortality at 168 h ([3]; 500 mg/kg voie digestive): 0%
mortality at 168 h ([3]; 1000 mg/kg voie digestive): 15%
mortality at 168 h ([3]; 1500 mg/kg voie digestive): 30%
mortality at 168 h ([3]; 2000 mg/kg voie digestive): 55%
mortality at 168 h ([3]; 2500 mg/kg voie digestive): 60%
mortality at 168 h ([3]; 3000 mg/kg voie digestive): 65%
mortality at 168 h ([3]; 3500 mg/kg voie digestive): 80%
mortality at 168 h ([3]; 4000 mg/kg voie digestive): 100%
ED50 at 1 h [4]: 63 mg/kg
Propriétés déficitaires motrices sur la force musculaire (pourcentage de diminution des scores) [5, 9]: 3,8%
Propriétés déficitaires motrices sur la force musculaire (pourcentage de diminution des scores) ([5]; 25 mg/kg): 8,3%
Propriétés déficitaires motrices sur la force musculaire (pourcentage de diminution des scores) ([5]; 50 mg/kg): 33%
Propriétés déficitaires motrices sur la force musculaire (pourcentage de diminution des scores) ([5]; 75 mg/kg): 31,9%
Propriétés déficitaires motrices sur la force musculaire (pourcentage de diminution des scores) ([5]; 100 mg/kg): 80,4%
Propriétés déficitaires motrices sur la force musculaire (pourcentage de diminution des scores) ([5]; 150 mg/kg): 100%
Propriétés déficitaires motrices sur la force musculaire (pourcentage de diminution des scores) ([5]; 200 mg/kg): 100%
ED50 at 1 h [6]: 42 mg/kg
Propriétés déficitaires motrices sur l'agilité (pourcentage de diminution des scores) [7, 9]: 6,7%
Propriétés déficitaires motrices sur l'agilité (pourcentage de diminution des scores) ([7]; 25 mg/kg): 20%
Propriétés déficitaires motrices sur l'agilité (pourcentage de diminution des scores) ([7]; 50 mg/kg): 41,7%
Propriétés déficitaires motrices sur l'agilité (pourcentage de diminution des scores) ([7]; 75 mg/kg): 77,3%
Propriétés déficitaires motrices sur l'agilité (pourcentage de diminution des scores) ([7]; 100 mg/kg): 90%
Propriétés déficitaires motrices sur l'agilité (pourcentage de diminution des scores) ([7]; 150 mg/kg): 100%
Propriétés déficitaires motrices sur l'agilité (pourcentage de diminution des scores) ([7]; 200 mg/kg): 100%
Pourcentage de souris protégées une heure après traitement ([8]; 5 mg/kg voie digestive): 45%
Pourcentage de souris protégées une heure après traitement ([8]; 10 mg/kg voie digestive): 50%
Pourcentage de souris protégées une heure après traitement ([8]; 25 mg/kg voie digestive): 95%
Pourcentage de souris protégées une heure après traitement ([8]; 50 mg/kg voie digestive): 100%
Pourcentage de souris protégées une heure après traitement ([8]; 2,5 mg/kg voie digestive): 35%
ED50 ([8]; Mus musculus, po, souris, voie digestive, read-out: DE50 capable de protéger 50 % des animaux contre les crises psychomotrices): 4.5 mg/kg
activité par rapport au valproate de sodium (comparaison des DE50) ([8]; crises psychomotrices, souris): 26 fois
activité par rapport à la phénacétamide (comparaison des DE50) ([8]; crises psychomotrices, souris): trois fois plus actif
DL50/DE50 / Crises psycho-motrices ([8]; index thérapeutique absolu, souris): 511
DE50 psychodépressive / DE50 anticonvulsivante / Crises psycho-motrices ([8]; index thérapeutique relatif, psychodépressive = mean of DE50 for agilité, force musculaire, motricité, curiosité): 16
DE50 capable de protéger 50 % des animaux contre les crises psychomotrices ([8]; souris, voie digestive): 4,5 mg/kg and ~5,5 mg/kg
